We go through two compounds from US20240246934A1, “QUINAZOLINE-BASED COMPOUND, COMPOSITION, AND APPLICATION OF QUINAZOLINE-BASED COMPOUND” (BEIJING SCITECH-MQ PHARMACEUTICALS LIMITED, priority 2021, published 2024).

Read-outs that look alike come from different tables or passages of the source.

Series [1] in a line: Brain tissue and whole blood concentration in SD rats after oral administration. In kind it is in vivo. As to conditions: rat, PO 10 mg/kg, 2 h after administration. As for the experimental part:
In this assay, the pharmacokinetic characteristics of the compounds of the present application were assayed after administration of some of the compounds of the present application to SD rats by single oral administration and intravenous injection.
2. […] The mixture was stirred, vortexed and/or sonicated. Once a solution was obtained, the vehicle was gradually added to a final volume to reach the target concentration. The solution was vortexed, and sonicated to obtain a homogeneous solution.
Meanwhile, the IV group was not fasted and the PO group was fasted overnight (>12 hrs) and given food 2 hrs after drug administration. All animals had free access to water. The dosing regimen and pharmacokinetic sampling regimen are given in Table 6 and Table 7 below, respectively.
Rats were administered according to the above regimen, and blood and brain tissue samples were collected and processed at predetermined time points (collection and processing were performed according to conventional methods in the art).
The supernatant was diluted 2-fold with ultra-pure water, and the samples were analyzed by LC/MS.
Brain tissues were weighed and homogenized by adding 4-fold homogenizing solution (acetonitrile/water=1/1 v/v). […] The supernatant was diluted 2-fold with ultra-pure water, and the samples were analyzed by LC/MS.

For series [2], the system named is BT474 cells. Description: Inhibition of cell proliferation, CTG method, BT474. In kind it is cell-based. As to conditions: Homo sapiens, BT-474, 72 hours, read-out: hBT474 IC50. From the text: The present application examined the in vitro anti-proliferative activity of the compounds of the present disclosure against in vitro cultured BT474, NCI-N87, Ba/F3-EGFR-VIII and Ba/F3 HER2 A775_G776insYVMA and Ba/F3 EGFR D770_N771insSVD cell lines by CTG method.
Reagents and consumables: RPMI1640 (ThermoFisher, Cat. No. C11875500BT); fetal bovine serum (Hyclone, Cat. No. SV30087.03); 0.25% trypsin-EDTA (ThermoFisher, Cat. No. 25200-072); penicillin-streptomycin (Hyclone, Cat. No. SV30010); DMSO (Amresco, Cat. No. 0231-500ML); CTG assay kit (Promega, Cat. No. G924C); 96-well plate (Corning, Cat. No. 3603); multifunctional plate reader (Perkin Elmer, Cat. No. Envision)
Cell lines: BT474 (from the cell bank of Chinese Academy of Sciences), NCI-N87 (from ATCC), Ba/F3-EGFR-VIII, Ba/F3 HER2 A775_G776insYVMA and Ba/F3 EGFR D770_N771insSVD (all from KYinno Biotechnology (Beijing) Co., Ltd.); all of the above cells were cultured with RPMI1640 medium containing 10% fetal bovine serum, 100 U/mL penicillin, and 100 μg/mL streptomycin in the culture process.
1. […]
4. The cells were cultured for another 72 hours, and then cell viability was detected by CTG assay kit. Signal values were read with a multifunctional plate reader (Perkin Elmer). GraphPad Prism software was used to create a dose-response curve and IC50 was calculated.

Broadly, the IC50 is the point on the concentration scale where inhibition reaches its midpoint.

With `CCN1CCC[C@@H]1/C=C/C(=O)Nc1ccc2ncnc(Nc3ccc(OCc4ccccn4)c(Cl)c3)c2c1OC` [Example 29, (R,E)-N-(4-((3-chloro-4-(pyridin-2-ylmethoxy)phenyl)amino)-5-methoxyquinazolin-6-yl)-3-(1-ethylpyrrolidin-2-yl)acrylamide], the concentration at 2 h in series [1] (whole blood, read-out: Blood drug concentration) was determined as 121 ng/mL; in series [1] (brain, NA: Exposure was too low to be counted, read-out: Brain tissue concentration), 43.5 ng/g. The Kp at 2 h in series [1] (brain / whole blood, read-out: Brain tissue/blood ratio) came to 0.36.
Turning to `COc1c(NC(=O)/C=C/[C@H]2CCCN2C)ccc2ncnc(Nc3ccc(OCc4ccccn4)c(Cl)c3)c12` [Example 4, (R,E)-N-(4-((3-chloro-4-(pyridin-2-ylmethoxy)phenyl)amino)-5-methoxyquinazolin-6-yl)-3-(1-methylpyrrolidin-2-yl)acrylamide], the IC50 in series [2] fell in the range of 5 to 10 nM.
